The subject of one experiment is ear of the BALB/c mouse. As to the kind of experiment: Tolerance study: anti-irritant in preventive treatment before topical Differin gel, ear thickness (edema). It counts as in vivo. Conditions: for effect of the anti-irritant on the irritation caused by Differin gel (in words): anti-irritant applied before Differin gel; for % AUC inhibition vs Differin (reduction of edema/irritation due to Differin gel): anti-irritant solution followed by Differin gel, D1-D6, AUC D2-D19. As for the experimental part:
The anti-irritants used are formulated, unless otherwise indicated, in an ethanol/water (50:50) vehicle at the concentrations shown in the table below.
The goal of the present study is to compare the irritant power of a reference gel, comprising 0.1% adapalene, when this treatment is preceded or not preceded by treatment with an anti-irritant.
The treatment consists of a daily topical application (20 μl) of anti-irritant, formulated in an aqueous/alcoholic vehicle (50% ethanol and 50% water by volume), on the internal face of the right ear of BALB/c mice divided into 15 groups (female mice approximately 9 weeks old), followed by a topical application (20 μl) of Differin® gel (reference gel comprising 0.1% adapalene) at the rate of one application of each formulation per day for 6 days.
Evaluation is carried out by measurements of the thickness of the ear by means of the Oditest and by clinical observation of the animals from the 2nd to 19th day.

The subject of experiment [1] is comedones on the back of the Rhino mouse. Description: Comedolytic activity of Differin gel alone or preceded by an anti-irritant on the Rhino mouse. Conditions: split treatment, 18 days. Format: in vivo. The source says: The goal of the present study is to compare the comedolytic activity of Differin® gel (reference gel comprising 0.1% adapalene) whether this treatment is preceded or not preceded by a treatment with an anti-irritant.

Entries after “also recorded” stand apart in the source; their conditions may differ.

The source of these data is US20090098219A1, “Cosmetic/pharmaceutical compositions comprising retinoids and anti-irritants and treatment of keratinization disorders therewith” (GALDERMA RESEARCH & DEVELOPMENT, priority 2005, published 2009).

For the molecule `O.O.O.O.O.O.[Cl-].[Cl-].[Sr+2]` [strontium chloride hexahydrate, Strontium chloride hexahydrate], the “effect of the anti-irritant on the irritation caused by Differin gel (in words)” value (shortened to “effect … by Differin gel (in words)”) with ear of the BALB/c mouse is “effective in reducing the irritation”.

With Sodium choleate, in the experiment with ear of the BALB/c mouse, the “effect … by Differin gel (in words)” value is reported as “slightly reduces; also recorded: effective in reducing the irritation” and the “% AUC inhibition vs Differin (reduction of edema/irritation due to Differin gel)” value is on record as 9%.

With `NC(=O)NC1NC(=O)NC1=O` (stereo not drawn) [allantoin, Allantoin], in the experiment on ear of the BALB/c mouse, the “effect … by Differin gel (in words)” value is reported as “effective in reducing the irritation”. In addition, in experiment [1], the “effect on the comedolytic activity of Differin gel (in words)” value is “does not reduce the comedolytic activity”.

In the case of `O=C(O)CN(CCN(CC(=O)O)CC(=O)O)CC(=O)O` [EDTA], in the experiment with ear of the BALB/c mouse, the “effect … by Differin gel (in words)” value is “effective in reducing the irritation”.

On to `CC1(C)[C@@H](O)CC[C@]2(C)[C@H]3C(=O)C=C4[C@@H]5C[C@@](C)(C(=O)O)CC[C@]5(C)CC[C@@]4(C)[C@]3(C)CC[C@@H]12` [enoxolone, Enoxolone, reference compound], for which, in the experiment with ear of the BALB/c mouse, the “effect … by Differin gel (in words)” value is “virtually no effect; also recorded: do not have an effect”.

Take “Potassium disodium salt of β-glycyrrhizic acid [reference compound]”: the “effect … by Differin gel (in words)” value in the experiment with ear of the BALB/c mouse is “virtually no effect; also recorded: do not have an effect”.

In the case of `O=[N+]([O-])[O-].O=[N+]([O-])[O-].[Sr+2]` [strontium nitrate, Strontium nitrate], the “effect … by Differin gel (in words)” value in the experiment on ear of the BALB/c mouse was “effective in reducing the irritation”. Besides, in experiment [1], the “effect on the comedolytic activity of Differin gel (in words)” value is given as “does not reduce the comedolytic activity”.

Regarding `O=S(=O)([O-])[O-].[Zn+2]` [zinc sulfate, Zinc sulfate], in the experiment with ear of the BALB/c mouse, the “effect … by Differin gel (in words)” value is reported as “a reduction in the irritation; also recorded: effective in reducing the irritation” and the “% AUC inhibition vs Differin (reduction of edema/irritation due to Differin gel)” value was determined as 25%.
